Measured values reported in ChEMBL document CHEMBL1135886, “Substituted diphenyl sulfides as selective serotonin transporter ligands: synthesis and in vitro evaluation” (J Med Chem, 2002).

Columns and labels:
[1] = molecular target: Sodium-dependent dopamine transporter (Rattus norvegicus, UniProt P23977); assay: Inhibition of [3H]-GBR-12,935 binding to dopamine transporter (DAT) of rat striatal membranes; format: cell membranes, Membrane
[2] = molecular target: Norepinephrine transporter (Rattus norvegicus, UniProt Q9WTR4); assay: Inhibition of [3H]nisoxetine binding to norepinephrine transporter (NET) of rat cortical homogenates
[3] = molecular target: Sodium-dependent serotonin transporter (Rattus norvegicus, UniProt P31652); assay: Inhibition of [3H]paroxetine binding to serotonin transporter (SERT) of rat cortical membrane
Sequence of Sodium-dependent serotonin transporter (P31652 whole entry): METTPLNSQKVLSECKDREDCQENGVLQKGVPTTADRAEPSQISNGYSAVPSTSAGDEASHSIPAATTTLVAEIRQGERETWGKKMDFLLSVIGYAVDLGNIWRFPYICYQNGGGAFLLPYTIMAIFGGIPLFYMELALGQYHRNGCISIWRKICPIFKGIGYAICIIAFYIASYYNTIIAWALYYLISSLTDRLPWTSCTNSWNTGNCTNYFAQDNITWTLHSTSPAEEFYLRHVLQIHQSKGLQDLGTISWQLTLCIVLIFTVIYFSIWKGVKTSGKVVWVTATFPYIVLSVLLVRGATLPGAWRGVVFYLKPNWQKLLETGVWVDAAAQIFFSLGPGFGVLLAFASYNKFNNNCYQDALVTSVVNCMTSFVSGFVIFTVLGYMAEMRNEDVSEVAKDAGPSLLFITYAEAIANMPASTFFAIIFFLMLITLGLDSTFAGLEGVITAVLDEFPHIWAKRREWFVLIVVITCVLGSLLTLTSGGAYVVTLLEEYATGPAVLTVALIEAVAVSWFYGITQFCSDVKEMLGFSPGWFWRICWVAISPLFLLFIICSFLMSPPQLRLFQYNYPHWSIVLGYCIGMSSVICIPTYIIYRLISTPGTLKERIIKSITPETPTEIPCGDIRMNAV

Sequence of Sodium-dependent dopamine transporter (P23977 whole entry): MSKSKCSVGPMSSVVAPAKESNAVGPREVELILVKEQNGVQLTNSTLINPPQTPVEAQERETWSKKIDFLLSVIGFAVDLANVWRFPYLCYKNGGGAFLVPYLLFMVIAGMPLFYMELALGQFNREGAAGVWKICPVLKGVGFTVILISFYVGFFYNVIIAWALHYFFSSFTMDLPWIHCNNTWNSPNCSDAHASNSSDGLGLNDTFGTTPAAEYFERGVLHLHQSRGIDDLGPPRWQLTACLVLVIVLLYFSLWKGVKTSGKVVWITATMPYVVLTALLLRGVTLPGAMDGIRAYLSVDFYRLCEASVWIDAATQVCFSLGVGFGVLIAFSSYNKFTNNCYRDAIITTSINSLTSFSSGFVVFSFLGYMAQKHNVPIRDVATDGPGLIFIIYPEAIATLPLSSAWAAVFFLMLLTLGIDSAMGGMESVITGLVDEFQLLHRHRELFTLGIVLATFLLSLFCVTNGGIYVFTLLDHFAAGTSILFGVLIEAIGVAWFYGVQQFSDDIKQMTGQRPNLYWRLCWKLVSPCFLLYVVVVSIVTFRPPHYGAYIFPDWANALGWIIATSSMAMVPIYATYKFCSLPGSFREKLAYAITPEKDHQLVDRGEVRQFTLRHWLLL
Sequence of Norepinephrine transporter (Q9WTR4 whole entry): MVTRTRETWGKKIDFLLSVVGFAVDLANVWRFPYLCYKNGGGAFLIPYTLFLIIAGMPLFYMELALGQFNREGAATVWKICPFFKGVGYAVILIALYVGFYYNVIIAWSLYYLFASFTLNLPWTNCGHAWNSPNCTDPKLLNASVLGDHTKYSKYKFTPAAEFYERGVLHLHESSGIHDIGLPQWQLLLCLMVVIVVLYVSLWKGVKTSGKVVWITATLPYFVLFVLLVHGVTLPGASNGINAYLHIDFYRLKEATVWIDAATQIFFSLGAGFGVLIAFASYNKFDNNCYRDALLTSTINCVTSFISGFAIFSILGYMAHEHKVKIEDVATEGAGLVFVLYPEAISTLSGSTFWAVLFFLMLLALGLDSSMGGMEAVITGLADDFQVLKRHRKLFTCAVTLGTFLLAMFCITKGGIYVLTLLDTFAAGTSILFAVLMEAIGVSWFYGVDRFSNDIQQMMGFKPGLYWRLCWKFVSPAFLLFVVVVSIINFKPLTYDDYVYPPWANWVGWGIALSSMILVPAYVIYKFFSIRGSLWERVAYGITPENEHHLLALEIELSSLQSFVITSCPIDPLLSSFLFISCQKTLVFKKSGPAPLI

Row | Structure (SMILES) | Ki [1] [nM] | Ki [2] [nM] | Ki [3] [nM]
1 | CN(C)C(=O)c1ccccc1Sc1ccc(F)cc1C=O | > 1000 | > 1000 | 695
2 | CN(C)C(=O)c1ccccc1Sc1ccc(Br)cc1C=O | > 1000 | > 1000 | > 1000
3 | CN(C)Cc1ccccc1Sc1ccc(Br)cc1N | 171 | 107 | 2.23
4 | CNCc1ccccc1Sc1ccc(Br)cc1N | 171 | 107 | 1.49
5 | CNCc1ccccc1Sc1ccc(I)cc1CO | 760 | 12.8 | 0.98
6 | CN(CCF)Cc1ccccc1Sc1ccc(I)cc1N | > 1000 | > 1000 | 19.3
7 | CN(C)Cc1ccccc1Sc1ccc(/C=C/I)cc1N | > 1000 | 80.2 | 53.3
8 | CN(C)Cc1ccccc1Sc1ccc(F)cc1CO | 339 | 28.4 | 7.96
9 | CN(C)Cc1ccccc1Sc1ccc(I)cc1N | > 1000 | 683 | 
10 | COCc1cc(I)ccc1Sc1ccccc1CN(C)C | 172 | 212 | 2.5
11 | Cc1ccc(Sc2ccccc2CN(C)C)c(N)c1 | > 1000 | 325 | 1.65
12 | COCc1cc(Br)ccc1Sc1ccccc1CN(C)C | > 1000 | 326 | 2.75
13 | CN(C)Cc1ccccc1Sc1ccc(Br)cc1CO | 950 | 5.8 | 1.92
14 | CNCc1ccccc1Sc1ccc(I)cc1N | 818 | 714 | 1.25
